In data set [1] the test system is patients with PD and constipation. Briefly: Phase 2 trial, all dosed patients (Stage 1 and 2): adverse events. Format: in vivo, human. As to the method:
Fifty patients were enrolled and 44 were dosed. In Stage 1, 10 patients were dosed, 1 (10%) withdrew prior to completion and 9 (90%) completed dosing. In stage 2, 6 (15%) patients had ≥3 CSBM/week at the end of the run-in period and were excluded, 34 patients were dosed and bowel response was assessable in 31 (91%). Two patients (5.8%) were terminated prior to completion because of recurrent dizziness, and 3 others withdrew during dosing (8.8%): 2 because of diarrhea and 1 because of holiday. Fifteen patients were randomized.
Most AEs were confined to the GI tract (88% in Stage 1 and 63% in Stage 2). The most common AE was nausea which occurred in 4/10 (40%) patients in Stage 1 and in 18/34 (52.9%) in Stage 2 (Table 2). Diarrhea occurred in 4/10 (40%) patients in Stage 1 and 15/34 (44%) in Stage 2. One patient withdrew because of recurrent diarrhea. Other GI related AEs included abdominal pain 11/44 […], flatulence 3/44 (6.8%), vomiting 3/44 (6.8%), worsening of acid reflux 2/44 (4.5%), and worsening of hemorrhoids 1/44 (2.2%). […] The only other noteworthy AE was dizziness 8/44 (18%). Dizziness was graded as moderate in one patient who was receiving an alpha-adrenergic blocking agent (Terazosin). This patient was withdrawn from the study and recovered spontaneously.

Data set [2] can be described thus: Preclinical oral dosing in rats. It counts as in vivo.
Data set [3] is described as follows: Preclinical oral dosing in dogs. Format: in vivo.
The nature of another data set: Solubility in water. It counts as physicochemical.

Turning to `CC(C)[C@@H](CC[C@@H](C)[C@H]1CC[C@H]2[C@@H]3[C@H](O)C[C@H]4C[C@@H](NCCCNCCCCN)CC[C@]4(C)[C@H]3CC[C@]12C)OS(=O)(=O)O` (single isomer, unassigned) [squalamine (ENT-01), squalamine], the “patients with worsening of hemorrhoids” value in data set [1] (1/44 dosed patients) is 2.2%. In addition, in data set [1] (2/44 dosed patients), the “patients with worsening of acid reflux” value worked out at 4.5%. In data set [1] (3/44 dosed patients), this molecule registered a patients with flatulence of 6.8% and a patients with vomiting of 6.8%. Also, in data set [1] (8/44 dosed patients), the patients with dizziness is recorded as 18%. Further, the “absorption from the intestine” value in data set [2] (rat, portal blood concentrations following oral dosing of radioactive ENT-01) was “low”. Moreover, in data set [2] (rats), the bioavailability result was “limited bioavailability” and the tolerability entry is reported as “well tolerated”. In data set [3], the bioavailability entry is given as “limited bioavailability” and the tolerability entry is “well tolerated”. Moreover, the oral bioavailability entry in data set [3] (preclinical studies) is on record as “about 0.1%”. Moreover, the solubility in water result in the data set “Solubility in water” (neutral pH) was “weakly soluble”. Moreover, the dissolution in water entry in “Solubility in water” (pH<3.5 (the pH of gastric fluid)) is “readily dissolves”.

For the origin of these results see patent US20200038412A1, “METHODS OF TREATING ALZHEIMER'S DISEASE USING AMINOSTEROL COMPOSITIONS” (Enterin, Inc., priority 2018, published 2020).
